Key:
Format in all cases: in vivo
[1] = system: morningglory (Ipomoea coccinea); experiment: Test B pre-/postemergence plant response
How it was run: (§1)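 Preemergence and postemergence (plants 2-18 cm, 1- to 4-leaf stage) applications used test chemicals in a non-phytotoxic solvent with surfactant. Plants were held in a greenhouse 13 to 15 days, then rated visually against controls on a 0-100 scale (0 no effect, 100 complete control).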

[2] = system: green foxtail (Setaria viridis); experiment: Test B pre-/postemergence plant response
How it was run: as §1

[3] = system: downy bromegrass (Bromus tectorum); experiment: Test B pre-/postemergence plant response; settings: for Bromegrass, Downy plant response rating: 8 g ai/ha
How it was run: as §1

[4] = system: wheat (Triticum aestivum); experiment: Test B pre-/postemergence plant response
How it was run: as §1

[5] = system: wild oat (Avena fatua); experiment: Test B pre-/postemergence plant response
How it was run: as §1

[6] = system: corn (Zea mays); experiment: Test B pre-/postemergence plant response
How it was run: as §1

[7] = system: surinam grass (Brachiaria decumbens); experiment: Test B pre-/postemergence plant response
How it was run: as §1

[8] = system: large crabgrass (Digitaria sanguinalis); experiment: Test B pre-/postemergence plant response
How it was run: as §1

[9] = system: velvetleaf (Abutilon theophrasti); experiment: Test B pre-/postemergence plant response
How it was run: as §1

[10] = system: common (oilseed) sunflower (Helianthus annuus); experiment: Test B pre-/postemergence plant response; settings: Preemergence; for Sunflower plant response rating: scale 0 to 100
How it was run: as §1

[11] = system: ducksalad (Heteranthera limosa); experiment: Test B flooded paddy test plant response
How it was run: (§2)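 Step one: raise plants to 2 leaves. Step two: flood pots 3 cm over the soil and apply compound into the water, keeping this depth. Step three: after 13–15 greenhouse days, score visually versus controls, 0–100, where 100 means complete control.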

[12] = system: umbrella sedge (Cyperus difformis); experiment: Test B flooded paddy test plant response
How it was run: as §2

[13] = system: rice (Oryza sativa); experiment: Test B flooded paddy test plant response
How it was run: as §2

[14] = system: barnyardgrass (Echinochloa crus-galli); experiment: Test B flooded paddy test plant response
How it was run: as §2

[15] = 8 g ai/ha, postemergence, 0-100 scale
[16] = 16 g ai/ha, postemergence, 0-100 scale
[17] = Postemergence, 31 g ai/ha, scale 0 to 100
[18] = Postemergence, 62 g ai/ha, scale 0 to 100, 0 no effect, 100 complete control
[19] = Preemergence, 31 g ai/ha, scale 0 to 100 (0 no effect, 100 complete control)
[20] = Preemergence, 62 g ai/ha, 0 to 100 scale, 0 no effect, 100 complete control
[21] = Preemergence, 8 g ai/ha, scale 0 to 100
[22] = Preemergence, 16 g ai/ha, scale 0 to 100
[23] = Postemergence, 16 g ai/ha, scale 0 to 100
[24] = Flood (flooded paddy test), 62 g ai/ha, scale 0 to 100, 0 no effect, 100 complete control
[25] = Flood (flooded paddy test), 125 g ai/ha, scale 0 to 100, 0 no effect, 100 complete control
[26] = Flood (flooded paddy test), 250 g ai/ha, scale 0 to 100, 0 no effect, 100 complete control
[27] = Flood, 31 g ai/ha, scale 0 to 100

CCc1cc(-c2ccc(Br)cc2)nn1-c1c(O)cnn(C)c1=O [Compound 61]
Morningglory plant response rating [1, 15]: 0 | Morningglory plant response rating [1, 16]: 0 | Plant response rating, Morningglory [1, 17]: 0 | Plant response rating, Morningglory [1, 18]: 0 | Plant response rating, Morningglory [1, 19]: 0 | Plant response rating, Morningglory [1, 20]: 0 | Morningglory plant response rating [1, 21]: 0 | Morningglory plant response rating [1, 22]: 0 | Foxtail, Green plant response rating [2, 15]: 95 | Plant response rating, Foxtail, Green [2, 23]: 100 | Plant response rating, Foxtail, Green [2, 17]: 100 | Plant response rating, Foxtail, Green [2, 18]: 100 | Plant response rating, Foxtail, Green [2, 19]: 100 | Plant response rating, Foxtail, Green [2, 20]: 100 | Foxtail, Green plant response rating [2, 21]: 100 | Foxtail, Green plant response rating [2, 22]: 100 | Bromegrass, Downy plant response rating ([3]; postemergence, 0-100 scale): 80 | Plant response rating, Bromegrass, Downy [3, 23]: 90 | Plant response rating, Bromegrass, Downy [3, 17]: 98 | Plant response rating, Bromegrass, Downy [3, 18]: 98 | Plant response rating, Bromegrass, Downy ([3]; Preemergence, 16 g ai/ha, scale 0 to 100 (0 no effect, 100 complete control)): 90 | Plant response rating, Bromegrass, Downy [3, 19]: 95 | Plant response rating, Bromegrass, Downy [3, 20]: 95 | Bromegrass, Downy plant response rating ([3]; Preemergence, scale 0 to 100): 0 | Wheat plant response rating [4, 15]: 90 | Wheat plant response rating [4, 16]: 95 | Plant response rating, Wheat [4, 17]: 98 | Plant response rating, Wheat [4, 18]: 100 | Plant response rating, Wheat [4, 19]: 90 | Plant response rating, Wheat [4, 20]: 95 | Wheat plant response rating [4, 22]: 30 | Oat, Wild plant response rating [5, 15]: 100 | Oat, Wild plant response rating [5, 16]: 100 | Plant response rating, Oat, Wild [5, 17]: 100 | Plant response rating, Oat, Wild [5, 18]: 100 | Plant response rating, Oat, Wild [5, 19]: 95 | Plant response rating, Oat, Wild [5, 20]: 100 | Oat, Wild plant response rating [5, 21]: 40 | Oat, Wild plant response rating [5, 22]: 90 | Corn plant response rating [6, 15]: 75 | Plant response rating, Corn [6, 23]: 100 | Plant response rating, Corn [6, 17]: 100 | Plant response rating, Corn [6, 18]: 100 | Plant response rating, Corn [6, 19]: 100 | Plant response rating, Corn [6, 20]: 100 | Corn plant response rating [6, 21]: 95 | Corn plant response rating [6, 22]: 98 | Surinam Grass plant response rating [7, 15]: 100 | Surinam Grass plant response rating [7, 16]: 100 | Plant response rating, Surinam Grass [7, 17]: 100 | Plant response rating, Surinam Grass [7, 18]: 100 | Plant response rating, Surinam Grass [7, 19]: 100 | Plant response rating, Surinam Grass [7, 20]: 100 | Surinam Grass plant response rating [7, 21]: 85 | Surinam Grass plant response rating [7, 22]: 100 | Crabgrass, Large plant response rating [8, 15]: 98 | Plant response rating, Crabgrass, Large [8, 23]: 100 | Plant response rating, Crabgrass, Large [8, 17]: 100 | Plant response rating, Crabgrass, Large [8, 18]: 100 | Plant response rating, Crabgrass, Large [8, 19]: 100 | Plant response rating, Crabgrass, Large [8, 20]: 100 | Crabgrass, Large plant response rating [8, 21]: 50 | Crabgrass, Large plant response rating [8, 22]: 95 | Velvetleaf plant response rating [9, 15]: 0 | Velvetleaf plant response rating [9, 16]: 0 | Plant response rating, Velvetleaf [9, 17]: 0 | Plant response rating, Velvetleaf [9, 18]: 0 | Plant response rating, Velvetleaf [9, 19]: 0 | Plant response rating, Velvetleaf [9, 20]: 0 | Velvetleaf plant response rating [9, 21]: 0 | Velvetleaf plant response rating [9, 22]: 0 | Plant response rating, Sunflower ([10]; 31 g ai/ha, scale 0 to 100 (0 no effect, 100 complete control)): 0 | Plant response rating, Sunflower ([10]; 62 g ai/ha, 0 to 100 scale, 0 no effect, 100 complete control): 0 | Sunflower plant response rating ([10]; 8 g ai/ha): 0 | Sunflower plant response rating ([10]; 16 g ai/ha): 0 | Plant response rating, Ducksalad [11, 24]: 0 | Plant response rating, Ducksalad [11, 25]: 0 | Plant response rating, Ducksalad [11, 26]: 70 | Plant response rating, Ducksalad [11, 27]: 0 | Plant response rating, Sedge, Umbrella [12, 24]: 0 | Plant response rating, Sedge, Umbrella [12, 25]: 0 | Plant response rating, Sedge, Umbrella [12, 26]: 30 | Plant response rating, Sedge, Umbrella [12, 27]: 0 | Plant response rating, Rice [13, 24]: 0 | Plant response rating, Rice [13, 25]: 15 | Plant response rating, Rice [13, 26]: 60 | Plant response rating, Rice [13, 27]: 0 | Plant response rating, Barnyardgrass [14, 24]: 0 | Plant response rating, Barnyardgrass [14, 25]: 50 | Plant response rating, Barnyardgrass [14, 26]: 100 | Plant response rating, Barnyardgrass [14, 27]: 0

From patent publication US20100267561A1, “HERBICIDAL PYRIDAZINONE DERIVATIVES” (priority 2007, published 2010)
